Results from US10172835B2, “Anticancer agent composition” (J-Pharma Co., Ltd., priority 2014, dated 2019).
Counter-ions that a name gives are not always drawn.

Key:
[1] = system: KO99L cells (tPTEN−/− tumor cell line); test: WST-1 cell viability assay on KO99L cells; format: cell-based, murine; conditions: Mus musculus, KO99L cells, 48 h
Method: Two different assays were employed: i) In a 96-well plate format, cells (4.0±0.1×10^4 per well; 100 μL) were incubated with effectors (48 h, 37° C.; n=4 per experiment) and then WST-1 reagent (10 μL; Roche Diagnostics) added to each well of 96-well plates, incubated, and the formazan production was measured at 490 nm; and ii) cells (2.0±0.1×10^4 per well; 100 μL) were incubated with effectors (48 h, 37° C.; n=4 per experiment) and then bromodeoxyuridine reagent (10 μL/well; Roche Diagnostics) was added to each well and incubated (8 h, 37° C.). The cells were then fixed, denatured and incubated with anti-BrdU-conjugated with peroxidase (POD) antibody (100 μL/well). Colorimetric substrate (TMB: tetramethyl-benzidine; 100 μL/well) was added and BrdU incorporation quantified via optical density measurement (450 nm) which corresponds to DNA synthesis and proliferating cells.

mTORC1 / Akt activation = test: Western blot of S6RP, 4EBP1 and Akt phosphorylation, KO99L cells; format: cell-based, murine; conditions: 2.0-24 h; COMPOUND-JP 10.0 μM; MK-2206 5.0 μM; KU0063794 5.0 μM; rapamycin 10.0 nM; L-Asp, Erw 2.5 units/ml; velcade at 24 h
c-myc = test: Western blot of c-myc levels, KO99L cells; format: cell-based, murine; conditions: COMPOUND-JP 10.0 μM 2.0-24 h; Velcade 8 nM 24 h; KU0063794 10.0 μM; MK-2206 10.0 μM; rapamycin 100 nM
Method: (§1) Cell extracts were prepared using a cell lysis buffer (50 mM HEPES, pH 7.4, 150 mM NaCl, 20 mM EDTA, 100 mM NaF, 10 mM Na3VO4, 0.5% nonyl phenoxypolyethoxylethanol (NP40) supplemented with a cocktail of protease inhibitors. After SDS-PAGE separation and transfer to nitrocellulose immunoblotting was performed using the following antibodies against: Akt (Cell Signaling Technologies, #9272), CHOP (#2895), cleaved caspase 3 (#9664), c-Myc (#9402), eIF2a (#9721), 4EBP1 (#9644), LC3A/B (#12741), PARP (#9542), pJnk (T183/Y185) (#9251), pSer235-236-S6RP (#4856), pSer473-Akt (#9271), pSer65-4EBP1 (#9451) and S6RP (#2217); Bax (Sigma-Aldrich, B8429); PUMA (Abcam, ab54288); Bak (Millipore, 06536); ATF4 (Santa Cruz Biotechnologies, sc200), GADD34 (sc8327), Hsp60 (sc-1722), Hsp90 (sc-13119) and XBP1 (sc-7160); ATF6 (Imgenex, IMG-273).

CHOP = test: Western blot of CHOP protein levels, KO99L cells; format: cell-based, murine; conditions: for CHOP induction: FIG. 5B, COMPOUND-JP 5.0 and 10.0 μM, L-Asp 2.5 units/ml, rapamycin 10.0 nM, MK-2206 10.0 μM, KU0063794 10.0 μM
Method: as §1

KO99L cells = test: Combination studies with COMPOUND-JP, WST-1 viability, Chou-Talalay combination index; format: cell-based, murine; conditions: 48 h, suboptimal concentrations, in combination with COMPOUND-JP
Method: Combinations were analyzed by ANOVA followed by Tukey's Multiple comparison test to determine significance between experimental groups. The synergism between drugs was analyzed using the Chou-Talalay method. […] P-value <0.05 was accepted as statistically significant (*:p<0.05; **:p<0.01; ***:p<0.001). Analyses were performed using the GraphPAd Prism 3.0 software.

[2] = system: 44As3-11 cell derived from human scirrhous stomach cancer; test: MTT, single agents and combination with COM-JP, 44As3-11 cells; format: cell-based
Method: (§2) Two kind of cancer cells of a 44As3-11 cell derived from human scirrhous stomach cancer and a Panc-1 cell derived from human pancreatic cancer were cultured in the presence or absence of COM-JP, to which GEM and Pac was added on day 2, and the resultant mixture was continued to be cultured for 2 hours. Subsequently, the medium was replaced with a new medium, and the culture was performed in the presence or absence of COM-JP for 2 days more. Finally, the cells were collected, and the quantity of survival activity of the cells was determined by a MTT method. In each experiment, three cases of the group under the same conditions were measured, and the average value and the standard error, and the p-value of significance test were shown in the diagram.

[3] = system: Panc-1 cell derived from human pancreatic cancer; test: MTT, single agents and combination with COM-JP, Panc-1 cells; format: cell-based
Method: as §2

## NC1(C(=O)O)CC2CCC1C2 (stereo not shown) [BCH, 2-Aminobicyclo-(2,2,1)-heptane-2-carboxylic acid, reference compound]
[1]; 10.0 mM
  viability at 10000 µM: 30%

## CC(C)C[C@@H](N)C(=O)O [D-Leucine, D-leucine, reference compound]
[1]; 30.0 mM
  viability at 30000 µM: 60%

## NC1(c2ccc(-c3nc4ccn5c(=O)[nH]nc5c4cc3-c3ccccc3)cc2)CCC1 [MK-2206, reference compound]
mTORC1 / Akt activation
  4EBP1 phosphorylation: completely block
  Akt phosphorylation (serine 473) / activation: completely block
  S6RP phosphorylation (mTORC1 activation): completely block
c-myc
  c-myc protein level: dramatic disappearance of all three c-myc isoforms
CHOP
  CHOP induction: did not result in CHOP induction

## COc1cccc2c1C(=O)c1c(O)c3c(c(O)c1C2=O)C[C@@](O)(C(=O)CO)C[C@@H]3O[C@H]1C[C@H](N)[C@H](O)[C@H](C)O1 [doxorubicin, doxorubicin hydrochloride]
KO99L cells
  combination effect with COMPOUND-JP on metabolic activity/cell survival (Combination Index): synergy

## Nc1ccn([C@@H]2O[C@H](CO)[C@@H](O)C2(F)F)c(=O)n1 [gemstabine, gemcitabine]
[2]
  inhibitory effect of combination with COM-JP (15 μM): additive effect
  proliferation activity, agent used alone for 2 hours: decreased in a dose-dependent manner
[3]
  inhibitory effect of combination with COM-JP (15 μM): additive effect
  proliferation activity, agent used alone for 2 hours: decreased in a dose-dependent manner
  relative inhibitory effect of single agents: extremely small

## CC(=O)O[C@H]1C(=O)[C@@]2(C)[C@H]([C@H](OC(=O)c3ccccc3)[C@]3(O)C[C@H](OC(=O)[C@H](O)[C@@H](NC(=O)c4ccccc4)c4ccccc4)C(C)=C1C3(C)C)[C@]1(OC(C)=O)CO[C@@H]1C[C@@H]2O [paclitaxel]
[2]
  inhibitory effect of combination with COM-JP (15 μM): additive effect
  proliferation activity, agent used alone for 2 hours: decreased in a dose-dependent manner
  relative inhibitory effect of single agents: stronger than that of gemstabine
[3]
  inhibitory effect of combination with COM-JP (15 μM): additive effect
  proliferation activity, agent used alone for 2 hours: decreased in a dose-dependent manner
  relative inhibitory effect of single agents: stronger than that of gemstabine

## CC(C)C[C@H](NC(=O)[C@H](Cc1ccccc1)NC(=O)c1cnccn1)B(O)O [velcade, bortezomib, reference compound]
mTORC1 / Akt activation
  4EBP1 phosphorylation: completely abolished
  Akt phosphorylation (serine 473) / activation: completely abolished
  S6RP phosphorylation (mTORC1 activation): completely abolished
c-myc
  c-myc protein level: Analogous observations
CHOP
  CHOP induction: strongly induced

B1: Erw: enzyme that can degrade extracellular asparagine, with higher glutaminase activity (protein, UniProt P06608 22-348, looked up)
L-asparaginase: ADKLPNIVILATGGTIAGSAATGTQTTGYKAGALGVDTLINAVPEVKKLANVKGEQFSNMASENMTGDVVLKLSQRVNELLARDDVDGVVITHGTDTVEESAYFLHLTVKSDKPVVFVAAMRPATAISADGPMNLLEAVRVAGDKQSRGRGVMVVLNDRIGSARYITKTNASTLDTFKANEEGYLGVIIGNRIYYQNRIDKLHTTRSVFDVRGLTSLPKVDILYGYQDDPEYLYDAAIQHGVKGIVYAGMGAGSVSVRGIAGMRKAMEKGVVVIRSTRTGNGIVPPDEELPGLVSDSLNPAHARILLMLALTRTSDPKVIQEYFHTY
mTORC1 / Akt activation
  4EBP1 phosphorylation: altered 4EBP1 phosphorylation
  Akt phosphorylation (serine 473) / activation: did not significantly influence Akt phosphorylation
  S6RP phosphorylation (mTORC1 activation): altered S6RP phosphorylation
CHOP; FIG. 5A, COMPOUND-JP 10.0 μM, L-Asp, Erw 2.5 units/ml, 2.0-24 h
  CHOP expression, time course: induced a transient response
